According to US20240174611A1 (Rappta Therapeutics Oy, priority 2021, published 2024):

The molecules below were run on HCC1937 cells (assay: HCC1937 cell viability assay (MTS)). Details: Homo sapiens, HCC1937 cell line (footnote a), 48 hours treatment.
Assay type: cell-based
Description: HCC1937 cell line HCC1937 cells are plated in a 96 well plate format at a density of 10,000 cells per well. After incubation overnight, cells are treated with compounds 1-100 at following concentrations: 80, 40, 20, 10, 5, 2.5, 1.25 μM. Compound concentrations are prepared in RPMI via serial dilutions from a starting stock of 80 mM. 48 hours after compound treatment, cell viability is assessed using the Promega CellTiter 96 aqueous one proliferation assay (Promega G3582, MTS assay) according to manufacturer's protocol.
(§1) The cell viability data was analyzed with GraphPad Prism software. The values were log transformed and analyzed with non-linear regression (curve-fit) using log(inhibitor) vs. response—variable slope (four parameters) and constraining the bottom to equal zero. Unless otherwise indicated, the GI50 values provided in Table 35 correspond to the LNCaP cell viability assays.

| SMILES | GI50 [µM] |
| --- | --- |
| N=S(=O)(NC1(c2ccc(F)cc2)CCNC1)c1ccc(OC(F)(F)F)cc1 (centres unmarked) [Compound 84, N-(3-(4-fluorophenyl)pyrrolidin-3-yl)-4-(trifluoromethoxy)benzenesulfonimidamide] | 75.1 |
| CC(C)CCN1CCC(NS(=O)(=O)c2ccc(OC(F)(F)F)cc2)(c2ccc(Cl)cc2)C1 (centres unmarked) [Compound 76, N-(3-(4-chlorophenyl)-1-isopentylpyrrolidin-3-yl)-4-(trifluoromethoxy)benzenesulfonamide] | 19.9 |
| O=S(=O)(NC1(c2ccc(F)cn2)CCNCC1)c1ccc(OC(F)(F)F)cc1 [Compound 65, N-(4-(5-fluoropyridin-2-yl)piperidin-4-yl)-4-(trifluoromethoxy)benzenesulfonamide] | 75.1 |
| Nc1cc(S(=O)(=O)NC2(c3ccc(F)cc3)CCNC2)ccc1OC(F)(F)F (centres unmarked) [Compound 92, 3-amino-N-(3-(4-fluorophenyl)pyrrolidin-3-yl)-4-(trifluoromethoxy)benzenesulfonamide] | 50.3 |

Each molecule was assayed on LNCaP cells (assay: LNCaP cell viability assay (MTS)). Details: Homo sapiens, LNCaP, 48 h, LNCaP cell line, 48 hours treatment.
Assay type: cell-based
Description: LNCaP cell line was used for the cell viability assay. LNCaP cells were plated in 96-well plates at a density of 5000 cells per well. After 24 hours of plating, the cells were treated with increasing doses of compound 1-100 ranging from 1 μM to 80 μM. Relative cell numbers were analyzed after 48 hours using 3-(4,5-dimethylthiazol-2-yl)-5-(3-carboxymethoxyphenyl)-2-(4-sulfophenyl)-2H-tetrazolium (MTS) assay (Promega) according to the manufacturer's instructions.
as §1

| SMILES | GI50 [µM] |
| --- | --- |
| Nc1cc(S(=O)(=O)NC2(c3ccc(Cl)cc3)CCNCC2)ccc1OC(F)(F)F [Compound 99, 3-amino-N-(4-(4-chlorophenyl)piperidin-4-yl)-4-(trifluoromethoxy)benzenesulfonamide] | 46.1 |
| O=S(=O)(NC1CCCc2cc(Cl)ccc21)c1ccc(OC(F)(F)F)cc1 (centres unmarked) [Compound 12, N-(6-chloro-1,2,3,4-tetrahydronaphthalen-1-yl)-4-(trifluoromethoxy)benzene-sulfonamide] | 49 |
| O=S(=O)(NC1(c2ccc(Cl)c(Cl)c2)CNC1)c1ccc(OC(F)(F)F)cc1 [Compound 48, N-(3-(3,4-dichlorophenyl)azetidin-3-yl)-4-(trifluoromethoxy)benzenesulfonamide] | 18.2 |
| CC1(C)C[C@H](NS(=O)(=O)c2ccc(OC(F)(F)F)cc2)c2cc(F)ccc2O1 [Compound 27, (S)-N-(6-fluoro-2,2-dimethylchroman-4-yl)-4-(trifluoromethoxy)benzene-sulfonamide] | 12 |
| CC(C)Oc1ccc(S(=O)(=O)NC2(c3ccc(F)cc3)CCNCC2)cc1 [Compound 75, N-(4-(4-fluorophenyl)piperidin-4-yl)-4-isopropoxybenzenesulfonamide] | 30.7 |
| O=S(=O)(NC1CCCC1c1ccc(Cl)c(Cl)c1)c1ccc(OC(F)(F)F)cc1 (single isomer, unassigned) [Compound 43, N-(2-(3,4-dichlorophenyl)cyclopentyl)-4-(trifluoromethoxy)benzenesulfonamide] | 37.5 |
| O=S(=O)(N[C@@]1(c2ccc(Cl)cc2)CNC[C@@H]1F)c1ccc(OC(F)(F)F)cc1 (racemic) [Compound 79, N-((3S,4S)-3-(4-chlorophenyl)-4-fluoropyrrolidin-3-yl)-4-(trifluoromethoxy)benzenesulfonamide] | 55.8 |
| CC(C)(C)OC(=O)N1CCC(CF)(NS(=O)(=O)c2ccc(OC(F)(F)F)cc2)C1 (centres unmarked) [Compound 32] | 30 |
| O=S(=O)(NC1(c2ccc(Cl)cc2)CCNCC1)c1ccc(C(F)(F)F)cc1 [Compound 97, N-(4-(4-chlorophenyl)piperidin-4-yl)-4-(trifluoromethyl)benzenesulfonamide] | 11.6 |
| O=S(=O)(NC1(c2ccccc2)CCCNC1)c1ccc(OC(F)(F)F)cc1 (centres unmarked) [Compound 90, N-(3-phenylpiperidin-3-yl)-4-(trifluoromethoxy)benzenesulfonamide] | 48.9 |
